Assay results as given in patent US8759564B2, “Amidoacetonitrile compounds having pesticidal activity” (Novartis AG, priority 2009, dated 2014).

Legend:
[1] = test system: Trichostrongylus colubriformis; assay: In-vivo test in Mongolian gerbils using peroral application; details: dose 0.32 mg/kg, T. colubriformis
Method: (§1) 2. In-vivo Test on Trichostrongylus colubriformis and Haemonchus contortus in Mongolian Gerbils (Meriones unquiculatus) Using Peroral Application Six to eight week old Mongolian gerbils are infected through a stomach tube with ca. 2000 third instar larvae each of T. colubriformis and H contortus. 6 days after infection, the gerbils are treated by peroral application with the test compounds, dissolved in a mixture of 2 pasts DMSO and 1 part polyethylene glycol (PEG 400). On day 9 (3 days after treatment), when most of the H. cantortus that are still present are late 4th instar larvae and most of the T. colubriformis are immature adults, the gerbils are killed in order to count the worms. The efficacy is calculated as the % reduction of the number of worms in each gerbil, compared with the geometric average of number of worms from 6 infected and untreated gerbils.

[2] = test system: Haemonchus contortus; assay: as above; details: dose 0.32 mg/kg, H. contortus
Method: as §1

[3] = test system: Ostertagia ostertagi; assay: In-vivo test in cattle using peroral application; details: oral, worm burden in abomasum 23 to 28 days after treatment
Method: 4. In-vivo Test on Ostertagia ostertagi in Cattle Using Peroral Application Cattle are infected with 7,000 to 10,000 third stage larvae of Ostertagia ostertagi (Oo) 7 to 5 days prior to treatment. […] The animals are euthanized 23 to 28 days after treatment and the worm burden in the abomasum is examined. Efficacy assessment of the compounds is determined by comparison of the treated and untreated groups worm counts, calculated using Abbott's formula as follows: % efficacy=100×(C−T)/C; where C is the geometric mean worm count of each species for the untreated control group and T, the geometric mean worm count of each species for the treated group.

[4] = test system: Teladorsagia circumcincta; assay: In-vivo test in sheep using peroral application; details: oral, worm burden in abomasum 19 to 21 days after treatment
Method: 3. In-Vivo Test on Teladorsagia circumcincta in Sheep Using Peroral Application Sheep are infected with 6,000 to 8,000 third stage larvae of Teladorsagia circumcincta (Tca) 7 to 5 days prior to treatment Animals in the treated groups are treated orally at a dose of 2 or 5 mg per kg bodyweight. […] The animals are euthanized 19 to 21 days after treatment and the worm burden in the abomasum is examined. Efficacy assessment of the compounds is determined by comparison of the treated and untreated groups worm counts, calculated using Abbott's formula as follows: % efficacy=100×(C−T)/C, where C is the geometric mean worm count of each species for the untreated control group and T, the geometric mean worm count of each species for the treated group.

Compound | efficacy (% reduction of the number of worms) [1] [%] | efficacy (% reduction of the number of worms) [2] [%] | Efficacy against Oo [%] ([3]; dose 5 mg/kg) | Efficacy against Tca [%] ([4]; dose 2 mg/kg) | melting point [°C] | Efficacy against Tca [%] ([4]; dose 5 mg/kg) | Efficacy against Oo [%] ([3]; dose 20 mg/kg)
CC(C#N)(COc1cc(C#N)ccc1Oc1ccc(OC(F)(F)F)cc1Cl)NC(=O)c1ccc(OC(F)(F)F)cc1 (racemic) [Compound No. 1.1, N-[1-cyano-1-methyl-2-(5-cyano-2-{2-chloro-4-trifluoromethoxy-phenoxy}-phenoxy)-ethyl]-4-trifluoromethoxybenzamide] | 100 | 100 | 100 | 99 |  |  | 
CC(C#N)(COc1cc(C#N)ccc1Oc1ccc(OC(F)(F)F)cc1Cl)NC(=O)c1ccc(SC(F)(F)F)cc1 (racemic) [Compound No. 1.7, N-[1-cyano-1-methyl-2-(5-cyano-2-{2-chloro-4-trifluoromethoxy-phenoxy}-phenoxy)-ethyl]-4-trifluoromethylsulfanylbenzamide] | 100 | 100 | 100 | 99 | 136 to 137 |  | 
CC(C#N)(COc1cc(C#N)ccc1Oc1ccc(OC(F)(F)F)cc1Cl)NC(=O)c1ccc(S(=O)(=O)C(F)(F)F)cc1 (racemic) [Compound No. 1.12, N-[1-cyano-1-methyl-2-(5-cyano-2-{2-chloro-4-trifluoromethoxy-phenoxy}-phenoxy)-ethyl]-4-trifluoromethylsulfonylbenzamide] | 98 | 98 | 100 | 99 | 128 to 130 |  | 
C[C@@](C#N)(COc1cc(C#N)ccc1Oc1ccc(OC(F)(F)F)cc1Cl)NC(=O)c1ccc(OC(F)(F)F)cc1 [Compound No. 1.3, N-[(1R)-1-cyano-2-(5-cyano-2-{2-chloro-4-trifluoromethoxyphenoxy}-phenoxy)-1-methylethyl]-4-trifluoromehoxy-benzamide] | 100 | 100 |  |  |  |  | 
CC(C#N)(COc1cc(Cl)ccc1Oc1ccc(Cl)cc1Cl)NC(=O)c1ccc(OC(F)(F)F)cc1 (stereo not shown) [reference compound] |  |  |  |  |  | 15 | 
CC(C#N)(COc1cc(C#N)ccc1Oc1ccc(Cl)cc1Cl)NC(=O)c1ccc(OC(F)(F)F)cc1 (stereo not shown) [reference compound] |  |  |  |  |  | 0 | 55
